For the assay, the target named is T1, recombinant human GR (Homo sapiens, UniProt P04150).
T1 construct: purchased Panvera/Invitrogen P2812 (kit P2893)
T1 sequence (P04150 1-777): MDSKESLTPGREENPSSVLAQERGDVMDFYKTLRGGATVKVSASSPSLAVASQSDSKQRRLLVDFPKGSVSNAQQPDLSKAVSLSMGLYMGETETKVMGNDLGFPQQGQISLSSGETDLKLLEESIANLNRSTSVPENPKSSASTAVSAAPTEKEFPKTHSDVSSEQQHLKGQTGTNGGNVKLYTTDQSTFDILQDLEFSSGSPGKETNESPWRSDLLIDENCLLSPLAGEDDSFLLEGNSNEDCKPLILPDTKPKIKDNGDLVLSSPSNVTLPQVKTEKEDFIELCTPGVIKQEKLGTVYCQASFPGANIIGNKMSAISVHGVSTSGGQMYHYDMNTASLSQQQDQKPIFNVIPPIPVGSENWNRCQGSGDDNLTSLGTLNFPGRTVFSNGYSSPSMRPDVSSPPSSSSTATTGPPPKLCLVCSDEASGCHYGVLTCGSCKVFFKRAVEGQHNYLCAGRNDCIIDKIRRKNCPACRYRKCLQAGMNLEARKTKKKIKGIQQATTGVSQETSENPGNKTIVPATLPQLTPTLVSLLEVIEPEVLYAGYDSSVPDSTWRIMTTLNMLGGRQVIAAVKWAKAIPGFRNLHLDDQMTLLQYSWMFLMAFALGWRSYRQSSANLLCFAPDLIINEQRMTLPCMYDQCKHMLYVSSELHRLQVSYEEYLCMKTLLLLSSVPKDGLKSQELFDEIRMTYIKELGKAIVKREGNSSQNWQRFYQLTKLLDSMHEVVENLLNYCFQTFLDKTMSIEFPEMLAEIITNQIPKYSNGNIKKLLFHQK
In words: Human Glucocorticoid Receptor (GR) Assay (fluorescence polarization competition, Panvera/Invitrogen kit). Conditions: GS Red Fluoromone tracer, 2 hours at room temperature, 100% control 10 μM Dexamethasone, read-out: Inhibition of GR binding, IC50. As for the experimental part: Human Glucocorticoid Receptor (GR) Assay The assay is based on a commercial kit from Panvera/Invitrogen (Part number P2893). The assay technology is fluorescence polarization. The kit utilises recombinant human GR (Panvera, Part number P2812), a Fluoromone™ labelled tracer (GS Red, Panvera, Part number P2894) and a Stabilizing Peptide 10× (Panvera, Part number P2815). The GR and Stabilizing Peptide reagents are stored at −70° C. while the GS Red is stored at −20° C. Also included in the kit are 1M DTT (Panvera, Part number P2325, stored at −20° C.) and GR Screening buffer 10× (Panvera, Part number P2814, stored at −70° C. initially but once thawed stored at room temperature). Avoid repeated freeze/thaws for all reagents. The GR Screening buffer 10× comprises 100 mM potassium phosphate, 200 mM sodium molybdate, 1 mM EDTA and 20% DMSO. Test compounds (1 μL) and controls (1 μL) in 100% DMSO were added to black is polystyrene 384-well plates (Greiner low volume black flat-bottom, part number 784076). 0% control was 100% DMSO and 100% control was 10 μM Dexamethasone. Background solution (8 μL; assay buffer 10×, Stabilizing Peptide, DTT and ice cold MQ water) was added to the background wells. GS Red solution (7 μL; assay buffer 10×, Stabilizing Peptide, DTT, GS Red and ice cold water) was added to all wells except background wells. GR solution (7 μL; assay buffer 10×, Stabilizing Peptide, DTT, GR and ice cold water) was added to all wells. The plate was sealed and incubated in a dark at room temperature for 2 hours. The plate was read in an Analyst plate reader (LJL Biosystems/Molecular Devices Corporation) or other similar plate reader capable of recording fluorescence polarization (excitation wavelength 530 nm, emission wavelength 590 nm and a dichroic mirror at 561 nm).
In general terms: Fluorescence polarisation rises when a labelled molecule tumbles more slowly, as on binding a larger partner.
The term IC50 denotes the concentration at which inhibition is half-maximal. For `C[C@]12Cc3cnn(-c4ccc(F)nc4)c3C=C1CC[C@H]1[C@@H]3CC[C@](OC(=O)C4CCOC4)(C(=O)SCC#N)[C@@]3(C)C[C@H](O)[C@@]12F` (mixture of isomers) [Example 15 (racemate), (1R,3aS,3bS,10aS,10bR,11S,12aS)-1-{[(Cyanomethyl)sulfanyl]carbonyl}-10b-fluoro-7-(6-fluoropyridin-3-yl)-11-hydroxy-10a,12a-dimethyl-1,2,3,3a,3b,4,5,7,10,10a,10b,11,12,12a-tetradecahydrocyclopenta[5,6]naphtho[1,2-f]indazol-1-yl tetrahydrofuran-3-carboxylate], the IC50 was 0.55 nM.
With `C[C@]12Cc3cnn(-c4ccc(F)nc4)c3C=C1CC[C@H]1[C@@H]3CC[C@](OC(=O)C4CCOC4)(C(=O)SCF)[C@@]3(C)C[C@H](O)[C@@]12F` (mixture of isomers) [Example 16 (racemate), (1R,3aS,3bS,10aS,10bR,11S,12aS)-10b-Fluoro-1-{[(fluoromethyl)sulfanyl]carbonyl}-7-(6-fluoropyridin-3-yl)-11-hydroxy-10a,12a-dimethyl-1,2,3,3a,3b, 4,5,7,10,10a,10b,11,12,12a-tetradecahydrocyclopenta[5,6]naphtho[1,2-f]indazol-1-yl tetrahydrofuran-3-carboxylate] the figure was 0.53 nM; with `C[C@]12Cc3cnn(-c4ccc(F)nc4)c3C=C1CC[C@H]1[C@@H]3CC[C@](OC(=O)C4CCOC4)(C(=O)SCC#N)[C@@]3(C)C[C@H](O)[C@@]12F` (single isomer, unassigned) [15 (R)/(S) isomer], 0.57 nM; with `C[C@]12Cc3cnn(-c4ccc(F)nc4)c3C=C1CC[C@H]1[C@@H]3CC[C@](OC(=O)C4CCOC4)(C(=O)SCC#N)[C@@]3(C)C[C@H](O)[C@@]12F` (single isomer, unassigned) [15 (S)/(R) isomer], 0.58 nM.
With `C[C@]12Cc3cnn(-c4ccc(F)nc4)c3C=C1CC[C@H]1[C@@H]3CC[C@](OC(=O)C4CCOC4)(C(=O)SCF)[C@@]3(C)C[C@H](O)[C@@]12F` (single isomer, unassigned) [16 (R)/(S) isomer] the figure was 0.44 nM; with `C[C@]12Cc3cnn(-c4ccc(F)nc4)c3C=C1CC[C@H]1[C@@H]3CC[C@](OC(=O)C4CCOC4)(C(=O)SCF)[C@@]3(C)C[C@H](O)[C@@]12F` (single isomer, unassigned) [16 (S)/(R) isomer], 1.3 nM.
With `C[C@]12Cc3cnn(-c4ccc(F)cc4)c3C=C1CC[C@@H]1[C@@H]2[C@@H](O)C[C@@]2(C)[C@H]1CC[C@]2(OC(=O)C1CCCO1)C(=O)SCCO` (single isomer, unassigned) [Example 18] the figure was 3.1 nM; with `CC12Cc3cnn(-c4ccc(F)nc4)c3C=C1CC[C@@H]1C2[C@@H](O)C[C@@]2(C)[C@H]1CC[C@]2(OC(=O)C1CC1)C(=O)OCC#N` (stereo in doubt) [Example 20, (1R,3aS,3bS,10aS,10bR,11S,12aS)-1-{[Cyanomethyloxy]carbonyl}-7-(6-fluoropyridin-3-yl)-11-hydroxy-10a,12a-dimethyl-1,2,3,3a,3b,4,5,7,10,10a,10b,11,12,12a-tetradecahydrocyclopenta[5,6]naphtho[1,2-f]indazol-1-yl cyclopropanecarboxylate], 2.3 nM; with `COCC(=O)O[C@]1(C(=O)SCF)[C@H](C)C[C@H]2[C@@H]3CCC4=Cc5c(cnn5-c5ccc(F)nc5)C[C@]4(C)[C@@]3(F)[C@@H](O)C[C@@]21C` [Example 1, (1R,2R,3aS,3bS,10aS,10bR,11S,12aS)-10b-Fluoro-1-{[(fluoromethyl)sulfanyl]carbonyl}-7-(6-fluoropyridin-3-yl)-11-hydroxy-2,10a,12a-trimethyl-1,2,3,3a,3b,4,5,7,10,10a,10b,11,12,12a-tetradecahydrocyclopenta[5,6]naphtho[1,2-f]indazol-1-yl methoxyacetate], 3.5 nM.
On to `CCC(=O)O[C@]1(C(=O)SCF)[C@H](C)C[C@H]2[C@@H]3CCC4=Cc5c(cnn5-c5ccc(F)nc5)C[C@]4(C)[C@@]3(F)[C@@H](O)C[C@@]21C` [Example 2, (1R,2R,3aS,3bS,10aS,10bR,11S,12aS)-10b-Fluoro-1-{[(fluoromethyl)sulfanyl]carbonyl}-7-(6-fluoropyridin-3-yl)-11-hydroxy-2,10a,12a-trimethyl-1,2,3,3a,3b,4,5,7,10,10a,10b,11,12,12a-tetradecahydrocyclopenta[5,6]naphtho[1,2-f]indazol-1-yl propanoate], for which the IC50 turned out to be 1.9 nM.
As to `CCC(=O)O[C@]1(C(=O)SCC#N)[C@H](C)C[C@H]2[C@@H]3CCC4=Cc5c(cnn5-c5ccc(F)nc5)C[C@]4(C)[C@@]3(F)[C@@H](O)C[C@@]21C` [Example 3, (1R,2R,3aS,3bS,10aS,10bR,11S,12aS)-1-{[(Cyanomethyl)sulfanyl]carbonyl}-10b-fluoro-7-(6-fluoropyridin-3-yl)-11-hydroxy-2,10a,12a-trimethyl-1,2,3,3a,3b,4,5,7,10,10a,10b,11,12,12a-tetradecahydrocyclopenta[5,6]naphtho[1,2-f]indazol-1-yl propanoate], the IC50 came out at 1.6 nM.
With `C[C@@H]1C[C@H]2[C@@H]3CCC4=Cc5c(cnn5-c5ccc(F)nc5)C[C@]4(C)[C@@]3(F)[C@@H](O)C[C@]2(C)[C@@]1(OC(=O)c1cocn1)C(=O)SCF` [Example 4, (1R,2R,3aS,3bS,10aS,10bR,11S,12aS)-10b-Fluoro-1-{[(fluoromethyl)sulfanyl]carbonyl}-7-(6-fluoropyridin-3-yl)-11-hydroxy-2,10a,12a-trimethyl-1,2,3,3a,3b,4,5,7,10,10a,10b,11,12,12a-tetradecahydrocyclopenta[5,6]naphtho[1,2-f]indazol-1-yl 1,3-oxazole-4-carboxylate] the figure was 2.8 nM.
With `CCC(=O)O[C@]1(C(=O)SCF)[C@H](C)C[C@H]2[C@@H]3CCC4=Cc5c(cnn5-c5ccc(F)cc5)C[C@]4(C)[C@@]3(F)[C@@H](O)C[C@@]21C` [Example 5, (1R,2R,3aS,3bS,10aS,10bR,11S,12aS)-10b-Fluoro-1-{[(fluoromethyl)sulfanyl]carbonyl}-7-(4-fluorophenyl)-11-hydroxy-2,10a,12a-trimethyl-1,2,3,3a,3b,4,5,7,10,10a,10b,11,12,12a-tetradecahydrocyclopenta[5,6]naphtho[1,2-f]indazol-1-yl propanoate] the figure was 11 nM; with `COCC(=O)O[C@]1(C(=O)SCF)[C@H](C)C[C@H]2[C@@H]3CCC4=Cc5c(cnn5-c5ccc(F)cc5)C[C@]4(C)[C@@]3(F)[C@@H](O)C[C@@]21C` [Example 6, (1R,2R,3aS,3bS,10aS,10bR,11S,12aS)-10b-Fluoro-1-{[(fluoromethyl)sulfanyl]carbonyl}-7-(4-fluorophenyl)-11-hydroxy-2,10a,12a-trimethyl-1,2,3,3a,3b,4,5,7,10,10a,10b,11,12,12a-tetradecahydrocyclopenta[5,6]naphtho[1,2-f]indazol-1-yl methoxyacetate], 7.8 nM; with `CCC(=O)O[C@]1(C(=O)SCF)CC[C@H]2[C@@H]3C[C@H](C)C4=Cc5c(cnn5-c5ccc(F)nc5)C[C@]4(C)[C@H]3[C@@H](O)C[C@@]21C` [Example 7, (1R,3aS,3bS,5S,10aR,10bS,11S,12aS)-1-{[(Fluoromethyl)sulfanyl]carbonyl}-7-(6-fluoropyridin-3-yl)-11-hydroxy-5,10a,12a-trimethyl-1,2,3,3a,3b,4,5,7,10,10a,10b,11,12,12a-tetradecahydrocyclopenta[5,6]naphtho[1,2-f]indazol-1-yl propanoate], 1.9 nM.

(Values after US8338587B2, “Compounds” (AstraZeneca AB, priority 2009, dated 2012).)
